In publication PMC4560162, “Discovery of small molecule inhibitors of xyloglucan endotransglucosylase (XET) activity by high-throughput screening” (Phytochemistry, 2015):
pIC50: −log10 of the molar value. Entries after “also recorded” stand apart in the source; their conditions may differ. Where two headings read alike, the source gives them in different places. Each block holds one compound with its values, some of them ahead of it.

Legend:
[1] = system: Petroselinum xyloglucan endotransglucosylase (XET) activity; assay: Fluorescent dot-blot XET screen (cellulose-bound xyloglucan + XGO–SR on paper, in the dark); type: biochemical, parsley; settings: for coagulation ('type c' effect) in dot-blot: EDI collection, 0.4 mg/ml in enzyme mixture
Procedure: For inhibitor screening, 53 new 96-well plates were set up with 50 μl of parsley enzyme extract per well, and 1 μl of DMSO-solubilised xenobiotic was added to each well, giving concentrations of 0.4 mg/ml (EDI collection, with exceptions noted in Table S2) or 50 μM (LATCA collection) and 2% v/v DMSO.
XET test-paper was prepared as before ([Fry, 1997]) and 112 × 75-mm sheets were attached to cellulose acetate overhead-projector sheets with ‘Spraymount’ adhesive. Each sheet was placed on a pre-cooled glass plate in a cold room at 4 °C.
For inhibitor screening (Fig. 2), 4 μl of a parsley enzyme/xenobiotic mixture was applied to each position on a sheet. Incubation at 20 °C for 2 h, washing, drying and photography were conducted essentially as above.

parsley XET activity = assay: Radiochemical XET assay (soluble xyloglucan + [3H]XXXGol); type: biochemical; settings: for inhibition of XET activity: additional LATCA compounds re-tested radiochemically at 200 μM; for effect on XET activity in radiochemical assays (as summarised in the discussion): free solution; for effect on XET activity, radiochemical re-screen of 206 compounds (mostly LATCA): LATCA approx. 25 μM, EDI approx. 200 μg/ml, listed in order of decreasing effectiveness; for effect on XET activity, first radiochemical re-screen of EDI hits: most xenobiotics at 200 μg/ml (≈200–800 μM)
Procedure: The parsley enzyme concentration was held constant, and the xenobiotics were tested at 200, 160, 120, 80, 40, 20, 10 and 0 μg/ml (concentrations in the final reaction mixture). Other details were as above.
The riboflavin-free controls received the same DMSO concentration.

[2] = EDI 0.4 mg/ml, LATCA 50 μM, 2 h, dark, cellulose-bound xyloglucan
[3] = soluble xyloglucan, laboratory light

effect on XET activity in dot-blot (inhibition / promotion) [1, 2]: apparent promoters
Compound: COc1cc(O)c2c(c1N)C(=O)c1ccccc1C2=O [1-amino-4-hydroxy-2-methoxyanthracene-9,10-dione]
inhibition of XET activity (parsley XET activity): 29%
effect on XET activity in radiochemical assays (as summarised in the discussion) (parsley XET activity; [3]): moderately inhibitory

effect on XET activity in dot-blot (inhibition / promotion) [1, 2]: stimulatory
Compound: Cc1cc2nc3cc(C)c(N)cc3[n+](-c3ccccc3)c2cc1N [Safranine O]

effect on XET activity in dot-blot (inhibition / promotion) [1, 2]: promoted
coagulation ('type c' effect) in dot-blot [1]: coagulation
Compound: O=c1cc(-c2ccc(O)cc2)oc2cc(O)cc(O)c12 [apigenin]
effect on XET activity in radiochemical assays (as summarised in the discussion) (parsley XET activity; [3]): little effect

effect on XET activity in dot-blot (inhibition / promotion) [1, 2]: promoted
coagulation ('type c' effect) in dot-blot [1]: coagulation
Compound: O=c1cc(-c2ccccc2)oc2cc(O)c(O)c(O)c12 [baicalein]
effect on XET activity in radiochemical assays (as summarised in the discussion) (parsley XET activity; [3]): inhibited

pIC50 (parsley XET activity; read-out: IC50 (concentration required for 50% inhibition of XET activity), radiochemical assay, soluble xyloglucan, laboratory light, 2 h, 20 °C): ~3.40
Compound: O=C(O[C@@H]1Cc2c(O)cc(O)cc2O[C@@H]1c1ccc(O)c(O)c1)c1cc(O)c(O)c(O)c1 [epicatechin gallate]
effect on XET activity, first radiochemical re-screen of EDI hits (parsley XET activity): inhibitory

effect on XET activity in dot-blot (inhibition / promotion) [1, 2]: did not show inhibitory effects
Compound: Cc1cc2nc3c(=O)[nH]c(=O)nc-3n(C[C@H](O)[C@H](O)[C@H](O)COP(=O)(O)OP(=O)(O)OC[C@H]3O[C@@H](n4cnc5c(N)ncnc54)[C@H](O)[C@@H]3O)c2cc1C [flavin adenine dinucleotide]
effect on XET activity, radiochemical re-screen of 206 compounds (mostly LATCA) (parsley XET activity): inhibition

effect on XET activity in dot-blot (inhibition / promotion) [1, 2]: stimulatory
Compound: C=C[C@@]1(C)CC(=O)[C@]2(O)[C@@]3(C)[C@@H](O)CCC(C)(C)[C@@H]3[C@H](O)[C@H](OC(C)=O)[C@@]2(C)O1 [forskolin]

effect on XET activity in dot-blot (inhibition / promotion) [1, 2]: slightly enhanced
Compound: COc1ccc([C@@H]2CC(=O)c3c(O)cc(O)cc3O2)cc1O [hesperetin]

effect on XET activity in dot-blot (inhibition / promotion) [1, 2]: stimulatory
Compound: OCc1c[nH]c2ccccc12 [indole 3-carbinol]

effect on XET activity in dot-blot (inhibition / promotion) [1, 2]: promotion; also recorded: promoted
Compound: O=C(O)[C@H](O)[C@@H](O)[C@H](O[C@@H]1O[C@H](CO)[C@H](O)[C@H](O)[C@H]1O)[C@H](O)CO [lactobionic acid]
effect on XET activity in radiochemical assays (as summarised in the discussion) (parsley XET activity; [3]): little effect

effect on XET activity in dot-blot (inhibition / promotion) [1, 2]: promoted
coagulation ('type c' effect) in dot-blot [1]: coagulation
Compound: O=c1cc(-c2ccc(O)c(O)c2)oc2cc(O)cc(O)c12 [luteolin]
effect on XET activity in radiochemical assays (as summarised in the discussion) (parsley XET activity; [3]): inhibited

effect on XET activity in dot-blot (inhibition / promotion) [1, 2]: stimulatory
Compound: C[C@@H]1C/C=C/C=C/C=C/C=C/[C@H](O[C@@H]2O[C@H](C)[C@@H](O)[C@H](N)[C@@H]2O)C[C@@H]2O[C@](O)(C[C@@H](O)C[C@H]3O[C@@H]3/C=C/C(=O)O1)C[C@H](O)[C@H]2C(=O)O [natamycin]

coagulation ('type c' effect) in dot-blot [1]: coagulation
Compound: O=C1OC(c2ccc(O)cc2)(c2ccc(O)cc2)c2ccccc21 [phenolphthalein]
effect on XET activity, first radiochemical re-screen of EDI hits (parsley XET activity): inhibitory

effect on XET activity in dot-blot (inhibition / promotion) [1, 2]: promoted
coagulation ('type c' effect) in dot-blot [1]: coagulation
Compound: O=C(CCc1ccc(O)cc1)c1c(O)cc(O)cc1O [phloretin]
effect on XET activity, first radiochemical re-screen of EDI hits (parsley XET activity): inhibitory
effect on XET activity in radiochemical assays (as summarised in the discussion) (parsley XET activity; [3]): inhibited

effect on XET activity in dot-blot (inhibition / promotion) [1, 2]: slightly enhanced
Compound: O=C(CCc1ccc(O)cc1)c1c(O)cc(O)cc1O[C@@H]1O[C@H](CO)[C@@H](O)[C@H](O)[C@H]1O [phloridzin]

effect on XET activity in dot-blot (inhibition / promotion) [1, 2]: promotion
Compound: O=C(O)c1ccccc1C(=O)O [phthalic acid]

effect on XET activity in dot-blot (inhibition / promotion) [1, 2]: promoted
Compound: O=C(O)[C@]1(O)C[C@@H](O)[C@@H](O)[C@H](O)C1 [quinic acid]
effect on XET activity in radiochemical assays (as summarised in the discussion) (parsley XET activity; [3]): little effect

effect on XET activity in dot-blot (inhibition / promotion) [1, 2]: promotion
Compound: O=C(O)[C@H](O)[C@@H](O)[C@H](O)CO [xylonic acid]

The next lines start with the compound.

Compound: O=C(O)c1cc[c]([Hg][Cl])cc1 [4-chloromercuribenzoic acid]
effect on XET activity in dot-blot (inhibition / promotion) [1, 2]: strong inhibitor
effect on XET activity, radiochemical re-screen of 206 compounds (mostly LATCA) (parsley XET activity): inhibition
XET activity inhibited (parsley XET activity; by ∼50 μM, little further inhibition up to ∼400 μM): 50–60%

Compound: Cc1ccc(SCc2ccc(C(=O)NCc3ccccn3)cc2)cc1 [4-{[(4-methylphenyl)thio]methyl}-N-(2-pyridinylmethyl)-benzamide]
effect on XET activity, radiochemical re-screen of 206 compounds (mostly LATCA) (parsley XET activity): inhibition

Compound: O=C1c2cccc3c(Br)ccc(c23)C(=O)N1O [6-bromo-2-hydroxy-1H-benzo[de]isoquinoline-1,3(2H)-dione]
effect on XET activity, radiochemical re-screen of 206 compounds (mostly LATCA) (parsley XET activity): inhibition

Compound: Cc1cccc(OCC(=O)N/N=C/c2ccc(Br)o2)c1 [N′-(1E)-(5-bromofuran-2-yl)methylidene-2-(3-methylphenoxy)acetohydrazide]
inhibition of XET activity (parsley XET activity): 24%

Compound: Cc1cc(C(=C2C=CC(=Nc3ccc(S(=O)(=O)O)cc3)C=C2)c2ccc(Nc3ccc(S(=O)(=O)O)cc3)cc2)cc(S(=O)(=O)O)c1N [aniline blue]
effect on XET activity in radiochemical assays (as summarised in the discussion) (parsley XET activity; [3]): inhibiting XET activity

Compound: CCOc1ccc(Nc2ccc(C(=C3C=CC(=[N+](CC)Cc4cccc(S(=O)(=O)[O-])c4)C=C3)c3ccc(N(CC)Cc4cccc(S(=O)(=O)O)c4)cc3)cc2)cc1 [brilliant blue R]
effect on XET activity, radiochemical re-screen of 206 compounds (mostly LATCA) (parsley XET activity): inhibition

Compound: Cc1cc(C2(c3cc(C)c(O)c(Br)c3)OS(=O)(=O)c3ccccc32)cc(Br)c1O [bromocresol purple]
effect on XET activity, radiochemical re-screen of 206 compounds (mostly LATCA) (parsley XET activity): inhibition

Compound: COc1cccc2c1C(=O)c1c(O)c3c(c(O)c1C2=O)C[C@@](O)(C(C)=O)C[C@@H]3O[C@H]1C[C@H](N)[C@H](O)[C@H](C)O1 [daunorubicin]
effect on XET activity in dot-blot (inhibition / promotion) [1, 2]: apparent promoters; also recorded: promoted
effect on XET activity in radiochemical assays (as summarised in the discussion) (parsley XET activity; [3]): moderately inhibitory; also recorded: inhibited

Compound: CC(C)C(C)C(O)C(O)C(C)C1CCC2C3COC(=O)C4CC(O)C(O)CC4(C)C3CCC12C (stereo not shown) [epibrassinolide]
inhibition of XET activity (parsley XET activity): 22%

Compound: CC(=O)[O][Hg][c]1ccccc1 [phenylmercuric acetate]
effect on XET activity in dot-blot (inhibition / promotion) [1, 2]: inhibitors
effect on XET activity, radiochemical re-screen of 206 compounds (mostly LATCA) (parsley XET activity): inhibition

Compound: O=[N+]([O-])[O-].[Ag+] [silver nitrate]
effect on XET activity in dot-blot (inhibition / promotion) [1]: inhibitors

Compound: C[CH2][Hg][S]c1ccccc1C(=O)[O-].[Na+] [thiomersal]
effect on XET activity in dot-blot (inhibition / promotion) [1, 2]: did not show inhibitory effects
effect on XET activity, radiochemical re-screen of 206 compounds (mostly LATCA) (parsley XET activity): inhibition

Compound: tannic acid
effect on XET activity, first radiochemical re-screen of EDI hits (parsley XET activity): inhibitory
